The source of these data is patent US20250230193A1, “CYCLIC COMPOUND HAVING SELECTIVE KRAS INHIBITORY EFFECT ON HRAS AND NRAS” (CHUGAI SEIYAKU KABUSHIKI KAISHA, priority 2022, published 2025).

Each structure is given as a SMILES string. Where a SMILES comes first, the peptide text is derived from it. Bridges are numbered along the chain shown (N, C = ends). [ ]: non-standard residue; d: D form. The star is where a group is joined. hPhe(3-Cl-4-CF3) = N[C@@H](CCc1ccc(C(F)(F)F)c(Cl)c1)C(=O)O; NEtPhe(4-Me) = CCN[C@@H](Cc1ccc(C)cc1)C(=O)O; NMeGly(cPent) = CN[C@H](C(=O)O)C1CCCC1; NMeD = CN[C@@H](CC(=O)O)C(=O)O; NMeL = CN[C@@H](CC(C)C)C(=O)O; Morpholide = C1CN(*)CCO1; Ac5c = NC1(C(=O)O)CCCC1; NEtG = CCNCC(=O)O; Sar = CNCC(=O)O

Assay [1] has as its target GDP-bound NRAS wild-type protein (Homo sapiens, UniProt P01111). The assay is described as follows: Binding to NRAS by surface plasmon resonance (SPR), Single Cycle Kinetics. A general note: In SPR one partner is held on a chip, and binding of the other changes the refractive index at the surface.
The target in assay [2] is GDP-bound HRAS wild-type protein (Homo sapiens, UniProt P01112). Put plainly: Binding to HRAS by surface plasmon resonance (SPR), Single Cycle Kinetics.
GDP-bound HRAS wild-type protein, sequence (P01112 whole entry): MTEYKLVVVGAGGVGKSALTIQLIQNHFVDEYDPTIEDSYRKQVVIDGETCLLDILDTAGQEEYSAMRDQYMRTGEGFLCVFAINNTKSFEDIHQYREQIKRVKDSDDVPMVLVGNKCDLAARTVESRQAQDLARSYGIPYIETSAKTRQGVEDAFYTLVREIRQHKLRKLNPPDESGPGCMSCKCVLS
The mark [3] stands for this setting: KD ratio NRAS/KRAS, class symbols.
The mark [4] stands for this setting: KD ratio HRAS/KRAS, class symbols.
Setting [5] is: SPR, GDP-bound NRAS wild-type vs GDP-bound KRAS wild-type.
The mark [6] stands for this setting: SPR, GDP-bound HRAS wild-type vs GDP-bound KRAS wild-type.

GDP-bound NRAS wild-type protein, sequence (P01111 whole entry): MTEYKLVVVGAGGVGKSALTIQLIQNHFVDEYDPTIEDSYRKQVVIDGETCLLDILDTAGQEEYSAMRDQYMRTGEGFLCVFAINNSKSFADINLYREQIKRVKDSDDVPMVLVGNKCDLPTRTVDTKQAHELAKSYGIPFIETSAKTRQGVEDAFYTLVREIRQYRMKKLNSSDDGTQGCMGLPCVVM

With `CCCN(C)C(=O)[C@@H]1CC(=O)N(C)[C@@H](CC(F)F)C(=O)N[C@@H]([C@@H](C)CC)C(=O)N(C)CC(=O)N(C)[C@H]2C/C=C\CCN(C2=O)[C@@H](Cc2ccc(C(F)(F)F)cc2)C(=O)N(C)CC(=O)N[C@@H](CCc2cc(F)c(C(F)(F)F)c(F)c2)C(=O)N2C[C@H](F)C[C@H]2C(=O)NC2(CC(C)(C)C2)C(=O)N(C)[C@@H](C2CCCC2)C(=O)N1C` [PP1687], in assay [1] (KD ratio, GDP-bound NRAS wild-type vs GDP-bound KRAS wild-type, SPR), the “NRAS/KRAS (ratio of KD value for NRAS to KD value for KRAS)” value was “A (a compound having 10 or more and less than 20 is denoted as A)”. The “HRAS/KRAS (ratio of KD value for HRAS to KD value for KRAS)” value in assay [2] (KD ratio, GDP-bound HRAS wild-type vs GDP-bound KRAS wild-type, SPR) was “A (a compound having 10 or more and less than 20 is denoted as A)”.
In the case of `CC[C@H](C)[C@@H]1NC(=O)[C@H](CC(C)C)N(C)C(=O)C[C@@H](C(=O)N2CCOCC2)N(C)C(=O)[C@H](C2CCCC2)N(C)C(=O)C2(CCCC2)NC(=O)[C@@H]2CCCN2C(=O)[C@H](CCc2ccc(C(F)(F)F)c(Cl)c2)NC(=O)CN(CC)C(=O)[C@H](Cc2ccc(C)cc2)N(CC)C(=O)CN(C)C(=O)CN(C)C1=O` [PP0028] ([NMeL]I[Sar][Sar][NEtPhe(4-Me)][NEtG][hPhe(3-Cl-4-CF3)]P[Ac5c][NMeGly(cPent)][NMeD]-Morpholide; lactam N-11), in assay [1] (KD ratio NRAS/KRAS, SPR), the “NRAS/KRAS (ratio of KD for GDP-bound NRAS wild-type to KD for KRAS)” value was “C (A compound having a KD ratio of 0.1 or more and less than 3 is denoted as C)”. Also, in assay [2] (KD ratio HRAS/KRAS, SPR), the “HRAS/KRAS (ratio of KD for GDP-bound HRAS wild-type to KD for KRAS)” value is “C (A compound having a KD ratio of 0.1 or more and less than 3 is denoted as C)”.
On to `CCC[C@H]1C(=O)N[C@@H]([C@@H](C)CC)C(=O)N2CCC[C@H]2C(=O)N(C)[C@H]2C/C=C\CCN(C2=O)[C@@H](Cc2ccc(C)cc2)C(=O)N(C)CC(=O)N[C@@H](CCc2ccc(Cl)c(Cl)c2)C(=O)N2C[C@H](OCC)C[C@H]2C(=O)NC2(CC(C)(C)C2)C(=O)N(C)[C@@H](C(CC)CC)C(=O)N(C)[C@H](C(=O)N(C)C)CC(=O)N1C` [PP2638], for which the “NRAS/KRAS (ratio of KD value with respect to GDP-bound NRAS wild-type protein to KD value with respect to KRAS)” value in assay [1] (setting [3]) is “AA (a compound having 20 or more is denoted as AA)”. In addition, in assay [2] (setting [4]), the “HRAS/KRAS (ratio of KD value with respect to GDP-bound HRAS wild-type protein to KD value with respect to KRAS)” value was “A (a compound having 10 or more and less than 20 is denoted as A)”.
Turning to `CCO[C@@H]1C[C@H]2C(=O)NC3(CC(C)(C)C3)C(=O)N(C)[C@@H](C(CC)CC)C(=O)N(C)[C@H](C(=O)N(C)C)CC(=O)N(C)[C@@H](CC(C)C)C(=O)N[C@@H]([C@@H](C)CC)C(=O)N(C)CC(=O)N(C)[C@H]3C/C=C\CCN(C3=O)[C@@H](Cc3ccc(C(F)(F)F)cc3)C(=O)N(C)CC(=O)N[C@@H](CCc3ccc(C(F)(F)F)c(OC)c3)C(=O)N2C1` [PP2161], the “NRAS/KRAS (ratio of KD value with respect to NRAS to KD value with respect to KRAS)” value in assay [1] (setting [5]) is recorded as “AA (a compound having 20 or more is denoted as AA)”. In addition, in assay [2] (setting [6]), the “HRAS/KRAS (ratio of KD value with respect to HRAS to KD value with respect to KRAS)” value was “A (a compound having 10 or more and less than 20 is denoted as A)”.
For `CCC[C@H]1C(=O)N[C@@H]([C@@H](C)CC)C(=O)N(C)CC(=O)N(C)[C@H]2C/C=C\CCN(C2=O)[C@@H](Cc2ccc(C)cc2)C(=O)N(C)CC(=O)N[C@@H](CCc2ccc(C(F)(F)F)c(OC)c2)C(=O)N2C[C@H](OCC)C[C@H]2C(=O)NC2(CC(C)(C)C2)C(=O)N(C)[C@@H]([C@@H](C)CC)C(=O)N(C)[C@H](C(=O)N(C)C)CC(=O)N1C` [PP3006], the “NRAS/KRAS (ratio of KD value with respect to GDP-bound NRAS wild-type protein to KD value with respect to KRAS)” value in assay [1] (KD ratio NRAS/KRAS, SPR, GDP-bound wild-type proteins) is “A (a compound having 10 or more and less than 20 is denoted as A)”. For the same compound, the “HRAS/KRAS (ratio of KD value with respect to GDP-bound HRAS wild-type protein to KD value with respect to KRAS)” value in assay [2] (KD ratio HRAS/KRAS, SPR, GDP-bound wild-type proteins) was “A (a compound having 10 or more and less than 20 is denoted as A)”.
For the compound `CC[C@H](C)[C@@H]1NC(=O)[C@H](COC)N(C)C(=O)C[C@@H](C(=O)N(C)C)N(C)C(=O)[C@H](C2CCCC2)N(C)C(=O)C2(CC(C)(C)C2)NC(=O)[C@@H]2C[C@@H](OC3CCCC3)CN2C(=O)[C@H](CCc2cc(F)c(C(F)(F)F)c(F)c2)NC(=O)CN(C)C(=O)[C@H](CC2CCC(F)(F)CC2)N2CC/C=C\C[C@@H](C2=O)N(C)C(=O)CN(C2CC2)C1=O` [PP2634], the “NRAS/KRAS (ratio of KD value with respect to GDP-bound NRAS wild-type protein to KD value with respect to KRAS)” value in assay [1] (setting [3]) was “A (a compound having 10 or more and less than 20 is denoted as A)”. The “HRAS/KRAS (ratio of KD value with respect to GDP-bound HRAS wild-type protein to KD value with respect to KRAS)” value in assay [2] (setting [4]) was “A (a compound having 10 or more and less than 20 is denoted as A)”.
For the compound `CCO[C@H](C)[C@@H]1NC(=O)[C@H](CC(C)C)N(C)C(=O)C[C@@H](C(=O)N(C)C)N(C)C(=O)[C@H](C2CCCC2)N(C)C(=O)C2(CC(C)(C)C2)NC(=O)[C@@H]2C[C@H](C)CN2C(=O)[C@H](CCc2ccc(C(F)(F)F)c(OC)c2)NC(=O)CN(C)C(=O)[C@H](Cc2ccc(C)cc2)N2CC/C=C\C[C@@H](C2=O)N(C)C(=O)[C@@H]2CCCN2C1=O` [PP2418], the “NRAS/KRAS (ratio of KD value with respect to NRAS to KD value with respect to KRAS)” value in assay [1] (setting [5]) is “A (a compound having 10 or more and less than 20 is denoted as A)”. Besides, in assay [2] (setting [6]), the “HRAS/KRAS (ratio of KD value with respect to HRAS to KD value with respect to KRAS)” value is “B (a compound having 3 or more and less than 10 is denoted as B)”.
